Source: US7608577B2, “Peptidyl ketones as inhibitors of DPIV” (OSI Pharmaceuticals, Inc., priority 2001, dated 2009)

Columns and labels:
[1] = molecular target: T1, Prolidase from porcine kidney (Sus scrofa, UniProt A0A5G2QQV1); experiment: Cross reacting enzymes: prolidase; type: biochemical; conditions: substrate Ile-Pro-OH, pH 7.6
T1 sequence (A0A5G2QQV1 1-463): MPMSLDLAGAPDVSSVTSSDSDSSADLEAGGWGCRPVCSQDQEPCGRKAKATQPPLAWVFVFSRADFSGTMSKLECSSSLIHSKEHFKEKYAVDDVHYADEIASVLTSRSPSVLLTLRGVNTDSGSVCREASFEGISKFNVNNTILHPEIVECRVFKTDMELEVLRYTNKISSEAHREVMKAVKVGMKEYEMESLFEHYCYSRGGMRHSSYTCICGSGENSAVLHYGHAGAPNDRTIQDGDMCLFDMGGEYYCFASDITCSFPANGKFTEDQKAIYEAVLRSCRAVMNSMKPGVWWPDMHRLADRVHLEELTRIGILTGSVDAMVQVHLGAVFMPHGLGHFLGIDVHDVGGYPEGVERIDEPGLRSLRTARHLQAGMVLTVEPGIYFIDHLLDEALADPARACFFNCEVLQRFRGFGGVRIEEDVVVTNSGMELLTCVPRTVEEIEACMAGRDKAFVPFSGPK
Experimental: Prolidase from porcine kidney (ICN Biomedicals, Eschwege, Germany) was solved (1 mg/ml) in assay buffer (20 mM NH4(CH3COO)2, 3 mM MnCl2, pH 7.6). In order to get a fully active enzyme the solution was incubated for 60 min at room temperature.
450 μl solution with the test compounds in an concentration range of 5*10^−3 M-5*10^−7 M were admixed with 500 μl buffer solution (20 mM NH4(CH3COO)2, pH 7.6) and 250 μl Ile-Pro-OH (0.5 mM in the assay mixture). The assay mixture was pre-incubated at 30° C. for 5 min. After pre-incubation, 75 μl Prolidase (1:10 diluted in assay buffer) was added and measurement was performed at 30° C. and λ=220 nm for 20 min using a UV/Vis photometer, UV1 (Thermo Spectromc, Cambridge, UK).
(§1) The IC 50-values were calculated using Graphit 4.0.15 (Erithacus Software, Ltd., UK).

[2] = molecular target: T2, Dipeptidyl peptidase I (DP I, cathepsin C) (Rattus norvegicus, UniProt P80067); experiment: Cross reacting enzymes: dipeptidyl peptidase I; type: biochemical; conditions: MES buffer pH5.6, 30° C.
T2 construct: purchased Qiagen GmbH, Hilden, Germany
T2 sequence (P80067 25-462): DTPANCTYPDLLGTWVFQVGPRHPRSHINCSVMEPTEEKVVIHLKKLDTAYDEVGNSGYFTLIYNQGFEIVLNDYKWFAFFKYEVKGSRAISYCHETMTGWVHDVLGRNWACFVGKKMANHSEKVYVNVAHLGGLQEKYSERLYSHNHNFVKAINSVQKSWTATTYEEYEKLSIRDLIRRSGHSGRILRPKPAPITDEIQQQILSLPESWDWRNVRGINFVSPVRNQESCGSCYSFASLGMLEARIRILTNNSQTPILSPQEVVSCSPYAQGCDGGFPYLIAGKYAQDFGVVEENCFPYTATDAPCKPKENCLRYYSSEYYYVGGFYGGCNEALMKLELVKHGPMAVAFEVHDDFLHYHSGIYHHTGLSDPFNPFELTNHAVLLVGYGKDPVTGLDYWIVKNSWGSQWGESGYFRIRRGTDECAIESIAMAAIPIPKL
Experimental: DP I or cathepsin C is a lysosomal cysteine protease which cleaves off dipeptides from the N-terminus of their substrates (Gutman, H. R. & Fruton, J. S., 1948, J. Biol: Chem., 174, 851-858). It is classified as a cysteine protease. The enzyme used was purchased from Qiagen (Qiagen GmbH, Hilden, Germany). In order to get a fully active enzyme, the enzyme was diluted 1000 fold in MES buffer pH5.6 (40 mM MES, 4 mM DTT, 4 mM KCl, 2 mM EDTA, 0.015% Brij) and pre-incubated for 30 min at 30° C.
50 μl solution with the test compounds in a concentration range of 1*10^−5 M-1*10^−7 M was admixed with 110 μl buffer-enzyme-mixture. The assay mixture was pre-incubated at 30° C. for 15 min. After pre-incubation, 100 μl histidylseryl-βnitroaniline (2*10^−5M) was added and measurement of yellow color development due to β-nitroaniline release was performed at 30° C. and […] for 10 min, using a plate reader (HTS7000 plus, Applied Biosystems, Weiterstadt, Germany).
as §1

Br.CC(=O)OCC(=O)[C@@H]1CCCN1C(=O)[C@@H](NC(=O)[C@H](C)N)C(C)C [H-Ala-Val-Pro-CH2O—CO—CH3*HBr, 2-[(Acetyloxy-methyl)carbonyl]-1-N-[(L)-Alanyl-(L)-Valinyl]-(2S)-pyrrolidine hydrobromide]
Prolidase IC50 [1]: no inhibition
IC50 [2]: 120 µM

Br.CC(C)[C@H](NC(=O)[C@H](C)N)C(=O)N1CCC[C@H]1C(=O)COC(=O)c1ccccc1 [H-Ala-Val-Pro-CO—CH2O—CO—Ph*HBr, 2-[(Benzoyloxy-methyl)carbonyl]-1-N-[{(L)-Alanyl}-(L)-Valinyl]-(2S)-pyrrolidine hydrobromide]
IC50 [1]: 414 µM
IC50 [2]: 316 µM

Br.CC(=O)[C@@H]1CCCN1C(=O)[C@@H](NC(=O)[C@H](C)N)C(C)C [H-Ala-Val-Pro-Me*HBr, 2-Methylcarbonyl-1-N-[(L)-Alanyl-(L)-Valinyl]-(2S)-pyrrolidine hydrobromide]
IC50 [1]: 413 µM
DP I IC50 [2]: no inhibition
